Test results: article PMC5218480 (PLoS ONE, 2017)

Test system: MV-4-11 cells
Assay: Gene expression microarray analysis (Affymetrix PrimeView) and GSEA
Type: cell-based, human
Design: RFU PODN (11730768_x_at) / Fold change /veh PODN (11730768_x_at) / RFU LINC00158 (11744669_a_at) / Fold change /veh LINC00158 (11744669_a_at) / RFU DUSP10 (11751237_a_at) / Fold change /veh DUSP10 (11751237_a_at) / RFU ID3 (11757404_x_at) / Fold change /veh ID3 (11757404_x_at) / RFU PLEKHG5 (11737974_s_at) / Fold change /veh PLEKHG5 (11737974_s_at) / RFU LRRC4B (11730491_at) / Fold change /veh LRRC4B (11730491_at) / RFU GIMAP4 (11747438_a_at) / Fold change /veh GIMAP4 (11747438_a_at) / RFU KRT8 (11758183_x_at) / Fold change /veh KRT8 (11758183_x_at) / RFU CNN1 (11734310_a_at) / Fold change /veh CNN1 (11734310_a_at) / RFU VPS37D (11726825_at) / Fold change /veh VPS37D (11726825_at) / RFU C10orf10 (11716522_x_at) / Fold change /veh C10orf10 (11716522_x_at) / RFU KIR2DL2 /// KIR2DL4 /// KIR2DL5A /// KIR2DL5B /// KIR2DS1 /// KIR2DS2 /// KIR2DS3 /// KIR2DS4 /// KIR3DL3 /// KIR3DL3 /// KIR3DS1 (11738374_at) / Fold change /veh KIR2DL2 /// KIR2DL4 /// KIR2DL5A /// KIR2DL5B /// KIR2DS1 /// KIR2DS2 /// KIR2DS3 /// KIR2DS4 /// KIR3DL3 /// KIR3DL3 /// KIR3DS1 (11738374_at) / RFU C1QL1 (11718748_at) / Fold change /veh C1QL1 (11718748_at) / RFU TMPRSS4 (11747572_a_at) / Fold change /veh TMPRSS4 (11747572_a_at) / RFU HAMP (11756126_x_at) / Fold change /veh HAMP (11756126_x_at) / RFU RNFT2 (11725882_a_at) / Fold change /veh RNFT2 (11725882_a_at) / RFU NR4A2 (11747474_a_at) / Fold change /veh NR4A2 (11747474_a_at) / RFU ABCC12 (11746883_a_at) / Fold change /veh ABCC12 (11746883_a_at) / RFU TMEM136 (11760407_x_at) / Fold change /veh TMEM136 (11760407_x_at) / RFU CLDN22 /// WWC2 (11732394_at) / Fold change /veh CLDN22 /// WWC2 (11732394_at) / RFU HLA-DPB1 (11760878_x_at) / Fold change /veh HLA-DPB1 (11760878_x_at) / RFU SPINT1 (11716480_a_at) / Fold change /veh SPINT1 (11716480_a_at) / RFU GAP43 (11754022_s_at) / Fold change /veh GAP43 (11754022_s_at) / RFU A4GNT (11735810_at) / Fold change /veh A4GNT (11735810_at) / RFU PRB3 (11715151_x_at) / Fold change /veh PRB3 (11715151_x_at) / RFU TUBB4B (11761932_at) / Fold change /veh TUBB4B (11761932_at) / RFU CAPN14 (11732068_a_at) / Fold change /veh CAPN14 (11732068_a_at) / RFU TMCC2 (11721928_a_at) / Fold change /veh TMCC2 (11721928_a_at) / RFU IRGQ (11745062_a_at) / Fold change /veh IRGQ (11745062_a_at) / RFU FAM174B (11720279_a_at) / Fold change /veh FAM174B (11720279_a_at) / RFU TMPRSS4 (11748680_a_at) / Fold change /veh TMPRSS4 (11748680_a_at) / RFU FAM212B (11763350_a_at) / Fold change /veh FAM212B (11763350_a_at) / RFU PLEKHG5 (11743358_a_at) / Fold change /veh PLEKHG5 (11743358_a_at) / RFU ZSCAN30 (11745921_a_at) / Fold change /veh ZSCAN30 (11745921_a_at) / RFU CMKLR1 (11741424_a_at) / Fold change /veh CMKLR1 (11741424_a_at) / RFU LOC101060620 /// MAPK8IP1 (11723275_at) / Fold change /veh LOC101060620 /// MAPK8IP1 (11723275_at) / RFU SPTSSB (11747773_x_at) / Fold change /veh SPTSSB (11747773_x_at) / RFU PRSS12 (11739890_at) / Fold change /veh PRSS12 (11739890_at) / RFU BIN1 (11741810_x_at) / Fold change /veh BIN1 (11741810_x_at) / RFU WNT11 (11732464_a_at) / Fold change /veh WNT11 (11732464_a_at) / RFU C10orf10 (11716521_a_at) / Fold change /veh C10orf10 (11716521_a_at) / RFU C5orf56 (11738089_at) / Fold change /veh C5orf56 (11738089_at) / RFU CYB561 (11721691_x_at) / Fold change /veh CYB561 (11721691_x_at) / RFU ANKRD19P (11752326_a_at) / Fold change /veh ANKRD19P (11752326_a_at) / RFU OR2T12 /// OR2T33 /// OR2T8 (11738714_s_at) / Fold change /veh OR2T12 /// OR2T33 /// OR2T8 (11738714_s_at) / RFU VCAN (11748164_a_at) / Fold change /veh VCAN (11748164_a_at) / RFU JSRP1 (11732532_at) / Fold change /veh JSRP1 (11732532_at) / RFU KRTAP10-11 (11738290_x_at) / Fold change /veh KRTAP10-11 (11738290_x_at) / RFU MYO3A (11730013_a_at) / Fold change /veh MYO3A (11730013_a_at) / RFU EBF3 (11725865_a_at) / Fold change /veh EBF3 (11725865_a_at) / RFU CAMK2N1 (11719241_x_at) / Fold change /veh CAMK2N1 (11719241_x_at) / RFU C5orf56 (11738088_a_at) / Fold change /veh C5orf56 (11738088_a_at) / RFU OLFML3 (11715873_a_at) / Fold change /veh OLFML3 (11715873_a_at) / RFU LOC100653217 /// NTM (11731650_a_at) / Fold change /veh LOC100653217 /// NTM (11731650_a_at) / RFU MAPK11 (11762145_a_at) / Fold change /veh MAPK11 (11762145_a_at) / RFU FIZ1 (11724087_x_at) / Fold change /veh FIZ1 (11724087_x_at) / RFU OASL (11726364_x_at) / Fold change /veh OASL (11726364_x_at) / RFU SOX15 (11748057_x_at) / Fold change /veh SOX15 (11748057_x_at) / RFU CD79A (11719716_a_at) / Fold change /veh CD79A (11719716_a_at) / RFU HIST1H1D (11736915_at) / Fold change /veh HIST1H1D (11736915_at) / RFU CASKIN2 (11723855_a_at) / Fold change /veh CASKIN2 (11723855_a_at) / RFU LOC730098 (11760151_x_at) / Fold change /veh LOC730098 (11760151_x_at) / RFU OR4N2 (11742367_at) / Fold change /veh OR4N2 (11742367_at) / RFU PRRT2 (11749266_a_at) / Fold change /veh PRRT2 (11749266_a_at) / RFU SNX32 (11753110_a_at) / Fold change /veh SNX32 (11753110_a_at) / RFU CDHR5 (11726645_a_at) / Fold change /veh CDHR5 (11726645_a_at) / RFU RCAN1 (11760418_a_at) / Fold change /veh RCAN1 (11760418_a_at) / RFU FAM167A (11723789_a_at) / Fold change /veh FAM167A (11723789_a_at) / RFU FAM26E (11764081_at) / Fold change /veh FAM26E (11764081_at) / RFU ISYNA1 (11749810_s_at) / Fold change /veh ISYNA1 (11749810_s_at) / RFU ACY1 (11761880_at) / Fold change /veh ACY1 (11761880_at) / RFU 11764098_at / Fold change /veh 11764098_at / RFU SAMD14 (11745864_x_at) / Fold change /veh SAMD14 (11745864_x_at) / RFU NPB (11741838_a_at) / Fold change /veh NPB (11741838_a_at) / RFU TMPRSS6 (11731388_a_at) / Fold change /veh TMPRSS6 (11731388_a_at) / RFU KRTAP10-2 (11738614_at) / Fold change /veh KRTAP10-2 (11738614_at) / RFU ARHGAP8 /// PRR5-ARHGAP8 (11727945_x_at) / Fold change /veh ARHGAP8 /// PRR5-ARHGAP8 (11727945_x_at) / RFU KRTAP5-7 /// NADSYN1 (11734609_at) / Fold change /veh KRTAP5-7 /// NADSYN1 (11734609_at) / RFU RASL12 (11751679_a_at) / Fold change /veh RASL12 (11751679_a_at) / RFU CDKN2B (11736163_a_at) / Fold change /veh CDKN2B (11736163_a_at) / RFU PRF1 (11729649_at) / Fold change /veh PRF1 (11729649_at) / RFU, ZNF638 /// ZNF638-IT1 / Fold change vs veh, ZNF638 /// ZNF638-IT1 / RFU, PANK3 / Fold change vs veh, PANK3 / RFU, SH3YL1 / Fold change vs veh, SH3YL1 / RFU, ZEB2 / Fold change vs veh, ZEB2 / RFU, NRIP1 / Fold change vs veh, NRIP1 / RFU, PTTG1IP / Fold change vs veh, PTTG1IP / RFU, CAPN2 / Fold change vs veh, CAPN2 / RFU, MED14 / Fold change vs veh, MED14 / RFU, SNORA58 / Fold change vs veh, SNORA58 / RFU, C1orf63 / Fold change vs veh, C1orf63 / RFU, LRRFIP1 / Fold change vs veh, LRRFIP1 / RFU, NDUFAF7 / Fold change vs veh, NDUFAF7 / RFU, SLC12A2 / Fold change vs veh, SLC12A2 / RFU, IBTK / Fold change vs veh, IBTK / RFU, ESF1 / Fold change vs veh, ESF1 / Fold change vs veh, TMEM50B / RFU, TAOK1 / Fold change vs veh, TAOK1 / RFU, ACBD3 / Fold change vs veh, ACBD3 / RFU, TMA16 / Fold change vs veh, TMA16 / RFU, RWDD3 / Fold change vs veh, RWDD3 / RFU, BCAT1 / Fold change vs veh, BCAT1 / RFU, EDEM3 / Fold change vs veh, EDEM3 / RFU, TMEM33 / Fold change vs veh, TMEM33 / RFU, WDR75 / Fold change vs veh, WDR75 / RFU, AHCTF1 / Fold change vs veh, AHCTF1 / RFU, TFRC / Fold change vs veh, TFRC / RFU, ZDHHC17 / Fold change vs veh, ZDHHC17 / RFU, NOM1 / Fold change vs veh, NOM1 / RFU, ARL8B / Fold change vs veh, ARL8B / RFU, ZBTB11 / Fold change vs veh, ZBTB11 / RFU, TAMM41 / Fold change vs veh, TAMM41 / RFU, KIAA1704 /// LOC100996395 / Fold change vs veh, KIAA1704 /// LOC100996395 / RFU, ING1 / Fold change vs veh, ING1 / RFU, TRMT61B / Fold change vs veh, TRMT61B / RFU, FUBP3 / Fold change vs veh, FUBP3 / RFU, TP53 / Fold change vs veh, TP53 / RFU, TNKS2 / Fold change vs veh, TNKS2 / RFU, ZFP14 / Fold change vs veh, ZFP14 / RFU, ACTR2 / Fold change vs veh, ACTR2 / RFU, PPP3R1 / Fold change vs veh, PPP3R1 / RFU, PIK3R1 / Fold change vs veh, PIK3R1 / RFU, HNRNPA1 / Fold change vs veh, HNRNPA1 / RFU, RNF170 / Fold change vs veh, RNF170 / RFU, ZNF28 / Fold change vs veh, ZNF28 / RFU, RNGTT / Fold change vs veh, RNGTT / RFU, OGT / Fold change vs veh, OGT / RFU, BRD1 / Fold change vs veh, BRD1 / RFU, MARS / Fold change vs veh, MARS / RFU, ZNF655 / Fold change vs veh, ZNF655 / RFU, FAHD1 / Fold change vs veh, FAHD1 / RFU, BDP1 / Fold change vs veh, BDP1 / RFU, LRRCC1 / Fold change vs veh, LRRCC1 / RFU, ARID1A / Fold change vs veh, ARID1A / RFU, ZNF146 / Fold change vs veh, ZNF146 / RFU, ZNF330 / Fold change vs veh, ZNF330 / RFU, GPN3 / Fold change vs veh, GPN3 / RFU, C9orf123 / Fold change vs veh, C9orf123 / RFU, N4BP2L2 / Fold change vs veh, N4BP2L2 / RFU, ARFIP1 / Fold change vs veh, ARFIP1 / RFU, FAM179B / Fold change vs veh, FAM179B / RFU, BCL10 / Fold change vs veh, BCL10 / RFU, UHRF1BP1L / Fold change vs veh, UHRF1BP1L / RFU, BET1 / Fold change vs veh, BET1 / RFU, CNOT2 / Fold change vs veh, CNOT2 / RFU, ZNF268 / Fold change vs veh, ZNF268 / Fold change vs veh, ZNF507 / RFU, DGCR2 / Fold change vs veh, DGCR2 / RFU, WDSUB1 / Fold change vs veh, WDSUB1 / Fold change vs veh, HSP90B1 /// MIR3652 / RFU, ADSS / Fold change vs veh, ADSS / RFU, GK / Fold change vs veh, GK / RFU, ZNF148 / Fold change vs veh, ZNF148 / RFU, TAF9 / Fold change vs veh, TAF9 / RFU, SLC1A5 / Fold change vs veh, SLC1A5 / RFU, SLMO2 / Fold change vs veh, SLMO2 / RFU, ABCC4 / Fold change vs veh, ABCC4 / RFU, LOC101060439 /// RAP1B / Fold change vs veh, LOC101060439 /// RAP1B / RFU, RFX7 / Fold change vs veh, RFX7 / RFU, GTPBP10 / Fold change vs veh, GTPBP10 / RFU, CNEP1R1 / Fold change vs veh, CNEP1R1 / RFU, BIVM-ERCC5 /// ERCC5 / Fold change vs veh, BIVM-ERCC5 /// ERCC5 / RFU, ILF3 / Fold change vs veh, ILF3 / RFU 11762660_at / Fold change /veh 11762660_at / RFU VCAN (11757783_s_at) / Fold change /veh VCAN (11757783_s_at) / RFU DDX43 (11728927_at) / Fold change /veh DDX43 (11728927_at) / RFU KRT8 (11758188_x_at) / Fold change /veh KRT8 (11758188_x_at) / RFU NKD1 (11759106_at) / Fold change /veh NKD1 (11759106_at) / RFU SRD5A1 (11742802_a_at) / Fold change /veh SRD5A1 (11742802_a_at) / RFU TPSAB1 /// TPSB2 (11721975_s_at) / Fold change /veh TPSAB1 /// TPSB2 (11721975_s_at) / RFU GSTM3 (11746129_a_at) / Fold change /veh GSTM3 (11746129_a_at) / RFU IL23R (11737362_x_at) / Fold change /veh IL23R (11737362_x_at) / RFU TMEM51 (11727254_a_at) / Fold change /veh TMEM51 (11727254_a_at) / RFU PIWIL2 (11732686_x_at) / Fold change /veh PIWIL2 (11732686_x_at) / RFU ORM1 (11744905_x_at) / Fold change /veh ORM1 (11744905_x_at) / RFU CCDC152 (11743942_at) / Fold change /veh CCDC152 (11743942_at) / RFU ECM1 (11717891_a_at) / Fold change /veh ECM1 (11717891_a_at) / RFU IL23R (11748794_a_at) / Fold change /veh IL23R (11748794_a_at) / RFU TNFAIP8L3 (11732012_x_at) / Fold change /veh TNFAIP8L3 (11732012_x_at) / RFU MBOAT4 (11741988_at) / Fold change /veh MBOAT4 (11741988_at) / RFU 11764193_at / Fold change /veh 11764193_at / RFU TMEM53 (11763286_at) / Fold change /veh TMEM53 (11763286_at) / RFU MAGEB2 (11727129_at) / Fold change /veh MAGEB2 (11727129_at) / RFU TMEM200A (11744735_a_at) / Fold change /veh TMEM200A (11744735_a_at) / RFU CCDC152 (11751479_a_at) / Fold change /veh CCDC152 (11751479_a_at) / RFU FAM211A (11726209_a_at) / Fold change /veh FAM211A (11726209_a_at) / RFU RGS16 (11746705_a_at) / Fold change /veh RGS16 (11746705_a_at) / RFU VCAN (11755009_s_at) / Fold change /veh VCAN (11755009_s_at) / RFU RHOB (11743442_s_at) / Fold change /veh RHOB (11743442_s_at) / RFU RGS16 (11720943_a_at) / Fold change /veh RGS16 (11720943_a_at) / RFU RGS16 (11720944_at) / Fold change /veh RGS16 (11720944_at) / RFU, VPS4B / Fold change vs veh, VPS4B / RFU, CREB1 / Fold change vs veh, CREB1 / RFU, DNAJC13 / Fold change vs veh, DNAJC13 / RFU, GNAQ / Fold change vs veh, GNAQ / RFU, CDK5R1 / Fold change vs veh, CDK5R1 / RFU, ZRANB3 / Fold change vs veh, ZRANB3 / RFU, CUL4A / Fold change vs veh, CUL4A / RFU, CCNY / Fold change vs veh, CCNY / RFU, UFL1 / Fold change vs veh, UFL1 / RFU, COG3 / Fold change vs veh, COG3 / RFU, DIAPH2 / Fold change vs veh, DIAPH2 / RFU, SKA2 / Fold change vs veh, SKA2 / RFU, AFF3 / Fold change vs veh, AFF3 / RFU, LMF1 / Fold change vs veh, LMF1 / RFU, IPO11 / Fold change vs veh, IPO11 / RFU, DFFB / Fold change vs veh, DFFB / RFU, FOXP1 / Fold change vs veh, FOXP1 / RFU, CARD8 / Fold change vs veh, CARD8 / RFU, STRN3 / Fold change vs veh, STRN3 / RFU, ADK / Fold change vs veh, ADK / RFU, RASSF2 / Fold change vs veh, RASSF2 / RFU, WIPF1 / Fold change vs veh, WIPF1 / RFU, LARP1B / Fold change vs veh, LARP1B / RFU, RASA1 / Fold change vs veh, RASA1 / RFU, RB1 / Fold change vs veh, RB1 / RFU, PPFIA1 / Fold change vs veh, PPFIA1 / RFU, MAT2A / Fold change vs veh, MAT2A / RFU, CCT5 / Fold change vs veh, CCT5 / RFU, WDR92 / Fold change vs veh, WDR92 / RFU, CUX1 / Fold change vs veh, CUX1 / RFU, TTC7A / Fold change vs veh, TTC7A / RFU, TMEM135 / Fold change vs veh, TMEM135 / RFU, DEPTOR / Fold change vs veh, DEPTOR / RFU, CPM / Fold change vs veh, CPM / RFU, DNAJB6 / Fold change vs veh, DNAJB6 / RFU, CACNA2D3 / Fold change vs veh, CACNA2D3 / RFU, DTX4 / Fold change vs veh, DTX4 / RFU, TFCP2 / Fold change vs veh, TFCP2 / RFU, GMCL1 /// GMCL1P1 / Fold change vs veh, GMCL1 /// GMCL1P1 / RFU, AEBP2 / Fold change vs veh, AEBP2 / RFU, SNHG1 /// SNORD22 /// SNORD25 /// SNORD26 /// SNORD27 /// SNORD28 /// SNORD29 /// SNORD31 / Fold change vs veh, SNHG1 /// SNORD22 /// SNORD25 /// SNORD26 /// SNORD27 /// SNORD28 /// SNORD29 /// SNORD31 / Fold change (Aza/veh), C12orf56 (ProbeSet 11735607_a_at) / Fold change (ACY-1035/veh), C12orf56 (ProbeSet 11735607_a_at) / Fold change (Aza/veh), FGFR1OP (ProbeSet 11751329_s_at) / Fold change (ACY-1035/veh), FGFR1OP (ProbeSet 11751329_s_at) / Fold change (Aza/veh), VPS36 (ProbeSet 11739960_a_at) / Fold change (ACY-1035/veh), VPS36 (ProbeSet 11739960_a_at) / RFU SYPL1 (11715823_x_at) / Fold change /veh SYPL1 (11715823_x_at) / RFU IGFBP7 (11715501_s_at) / Fold change /veh IGFBP7 (11715501_s_at) / RFU REEP3 (11722064_at) / Fold change /veh REEP3 (11722064_at) / RFU IGLL1 (11728026_x_at) / Fold change /veh IGLL1 (11728026_x_at): dose or concentration left out as unconfirmed
Conditions: MV-4-11 cells, 48 hours

## Nc1ccc(-c2cccs2)cc1NC(=O)c1ccc2c(c1)cc(C1CC1)n2CCN1CCOCC1 [ACY-1035]
  RFU RASL12 (11751679_a_at): 18.80 RFU
